Values of other authors in patent US20070197544A1, “ILOPROST IN COMBINATION THERAPIES FOR THE TREATMENT OF PULMONARY ARTERIAL HYPERTENSION” (CoTherix, Inc., priority 2003, published 2007).
Structures can show the parent of a compound that is named as a salt. Where two headings read alike, the source gives them in different places.

What was measured:
[1] = oral, at 3 and 6 months
[2] = 20 mg, 12-week period
[3] = at least one year of treatment
[4] = long-term use of aerosolized iloprost, severe pulmonary hypertension
[5] = versus placebo, severe PAH
[6] = not given; remark: listed apart in the source
[7] = administered by aerosolization, patients with pulmonary hypertension
[8] = continuous infusion, severe pulmonary hypertension
[9] = open pilot study

CC#CCC(C)[C@H](O)/C=C/[C@@H]1[C@H]2c3cccc(CCCC(=O)O)c3O[C@H]2C[C@H]1O (mixture of isomers) [Beraprost]
benefit in PAH [1]: shown a benefit

CN1CC(=O)N2[C@H](c3ccc4c(c3)OCO4)c3[nH]c4ccccc4c3C[C@@H]2C1=O [Cialis, Tadalafil]
most commonly reported (greater than or equal to 5 percent) treatment-emergent adverse effects [2]: headache, back pain, and upset stomach | patients who discontinued the study because of adverse events [2]: 5% | most commonly reported treatment-emergent adverse effects ([3]; 10 mg or 20 mg): headache and upset stomach | discontinuation rate for any individual adverse event [3]: less than 1% | patients who discontinued the study due to side effects [3]: Five

CC#CCC(C)[C@H](O)/C=C/[C@@H]1[C@H]2C/C(=C/CCCC(=O)O)C[C@H]2C[C@H]1O (stereo partly shown) [Iloprost]
clinical improvement [4]: substantial clinical improvement | exercise capacity [5]: improved exercise capacity

CCCc1nc(C)c2c(=O)[nH]c(-c3cc(S(=O)(=O)N4CCN(CC)CC4)ccc3OCC)nn12 [Levitra, vardenafil HCl]
most commonly reported side effects (in vivo): headache, flushing, and stuffy or runny nose | erectile function (phase III clinical studies): Helped men get and keep an erection sufficient for satisfactory sexual performance

COc1ccccc1Oc1c(NS(=O)(=O)c2ccc(C(C)(C)C)cc2)nc(-c2ncccn2)nc1OCCO [bosentan]
liver toxicity ([6]; higher dose): liver toxicity occurred | six minute walk test ([6]; whole group, improvement greater at higher doses): improved

CCCCC[C@H](O)/C=C/[C@@H]1[C@H]2C/C(=C/CCCC(=O)O)O[C@H]2C[C@H]1O [prostacyclin]
duration of effects (pulmonary vasodilatation) [7]: 15 min | mortality [8]: reduce mortality

Cc1cc2c(cc1CC(=O)c1sccc1S(=O)(=O)Nc1onc(C)c1Cl)OCO2 [sitaxsentan]
decrease in pulmonary vascular resistance [9]: 30% | six minute walk test [9]: improvement
